According to paper PMC8362273 (Molecular cell, 2020):
“Also recorded” adds a separate entry of the source. Where two headings read alike, the source gives them in different places.

How the values were obtained:
[1] = tested on: Gsk; conditions: ref Kawasaki et al., 2000, cited from earlier work; for Km: Mori et al., 1995
[2] = tested on: Gsk(K383A); assay type: biochemical, E. coli; conditions: Figure 2F, S4A
[3] = molecular target: Gsk (inosine-guanosine kinase) (Escherichia coli, UniProt P0AEW6); assay: Isothermal titration calorimetry; assay type: binding, E. coli
[4] = tested on: Gsk; assay: Inosine/guanosine kinase; assay type: biochemical, E. coli
[5] = tested on: Gsk variants R7A, F321A, K383A, S393A, Q396A; conditions: each of R7A, in vitro (Figure 2G)
[6] = molecular target: PurA (adenylosuccinate synthase) (Escherichia coli, UniProt P0A7D4); assay: ITC of ppGpp with PurA; assay type: binding, E. coli
[7] = tested on: GuaB (IMP dehydrogenase); assay: IMP-dehydrogenase; assay type: biochemical, E. coli; conditions: ppGpp up to 1 mM (Figure S1B)
[8] = tested on: Gsk; assay: Inosine kinase; assay type: biochemical, E. coli; conditions: GuaB-coupled assay (Figure 1C)
[9] = molecular target: the molecule itself; assay: SEC-MALS
[10] = molecular target: the molecule itself; assay: SEC-MALS; remark: listed apart in the source
[11] = molecular target: the molecule itself; assay: dynamic light scattering
[12] = molecular target: the molecule itself; assay: crystal structure

PurA (adenylosuccinate synthase), sequence (P0A7D4 whole entry): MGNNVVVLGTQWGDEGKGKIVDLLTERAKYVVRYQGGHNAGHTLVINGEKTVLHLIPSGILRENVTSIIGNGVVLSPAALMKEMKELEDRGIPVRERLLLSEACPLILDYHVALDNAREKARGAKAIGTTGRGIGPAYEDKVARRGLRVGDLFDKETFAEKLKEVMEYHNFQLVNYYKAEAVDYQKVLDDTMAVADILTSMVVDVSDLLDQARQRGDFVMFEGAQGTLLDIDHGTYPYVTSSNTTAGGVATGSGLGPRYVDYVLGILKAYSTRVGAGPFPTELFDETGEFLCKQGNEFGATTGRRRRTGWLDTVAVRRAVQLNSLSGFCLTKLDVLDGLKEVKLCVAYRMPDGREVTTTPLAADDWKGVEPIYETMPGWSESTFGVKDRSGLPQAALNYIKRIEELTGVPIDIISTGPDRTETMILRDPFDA

## O=c1[nH]cnc2c1ncn2[C@@H]1O[C@H](CO)[C@@H](O)[C@H]1O [inosine]
[1]; read-out: Km of Gsk for inosine
  Km: 1500 µM

## Nc1nc2c(ncn2[C@@H]2O[C@H](COP(=O)(O)OP(=O)(O)O)[C@@H](O)[C@H]2O)c(=O)[nH]1 [GDP]
[1]
  feedback inhibition of Gsk: provides feedback inhibition
[2]
  sensitivity of Gsk(K383A) to inhibitor: completely insensitive

## Nc1nc2c(ncn2[C@@H]2O[C@H](CO)[C@@H](O)[C@H]2O)c(=O)[nH]1 [guanosine]
[1]; read-out: Km of Gsk for guanosine
  Km: 8 µM
[3]; ITC, Gsk saturated with ppGpp vs without
  gain in binding heat for guanosine when Gsk is bound to ppGpp: 8.7 kcal/mol

## Nc1nc2c(ncn2[C@@H]2O[C@H](COP(=O)(O)OP(=O)(O)OP(=O)(O)O)[C@@H](OP(=O)(O)OP(=O)(O)O)[C@H]2O)c(=O)[nH]1 [pppGpp, Guanosine pentaphosphate]
[3]; ITC (Figure S2I, Table S1), compared with ppGpp
  affinity for Gsk: much weaker affinity

## Nc1nc2c(ncn2[C@@H]2O[C@H](COP(=O)(O)OP(=O)(O)O)[C@@H](OP(=O)(O)OP(=O)(O)O)[C@H]2O)c(=O)[nH]1 [ppGpp, Guanosine tetraphosphate]
[2]
  sensitivity of Gsk(K383A) to inhibitor: completely insensitive
[4]; 1 mM inosine, varied ATP-Mg
  type of inhibition with respect to ATP: mixed-type inhibitor
[4]; Lineweaver-Burk plotting, 5 mM ATP-Mg, varied inosine
  type of inhibition with respect to inosine: counter-competitive, or cooperative, inhibitor
[4]; guanosine kinase activity, 50 nM Gsk (Figure 3J)
  fold inhibition of Gsk by ppGpp binding: ~ 60 fold
[4]; in vitro, PK-LDH coupled (Figure S1A)
  inhibition of inosine- and guanosine-kinase activities of Gsk: potently inhibited
[5]
  loss of sensitivity to ppGpp inhibition (fold less sensitive than WT Gsk): at least 5 fold
[6]
  Kd: 61 µM
[7]
  inhibition of GuaB: did not observe substantial inhibition; also recorded: could not reproduce the inhibition
[8]
  inhibition of inosine-kinase activity compared with GDP: stronger inhibitor than GDP
[3]
  Kd: 0.1 µM
[3]; ITC
  affinity for Gsk relative to that for GDP (fold stronger): about 20 fold
[3]; ITC, Gsk pre-saturated with guanosine vs without
  gain in binding heat of ppGpp when Gsk is bound to guanosine: 10.8 kcal/mol

B1: Gsk, inosine-guanosine kinase (E. coli), wild type, traceless after Sumo release (enzyme, UniProt P0AEW6 1-434, looked up)
chain: MKFPGKRKSKHYFPVNARDPLLQQFQPENETSAAWVVGIDQTLVDIEAKVDDEFIERYGLSAGHSLVIEDDVAEALYQELKQKNLITHQFAGGTIGNTMHNYSVLADDRSVLLGVMCSNIEIGSYAYRYLCNTSSRTDLNYLQGVDGPIGRCFTLIGESGERTFAISPGHMNQLRAESIPEDVIAGASALVLTSYLVRCKPGEPMPEATMKAIEYAKKYNVPVVLTLGTKFVIAENPQWWQQFLKDHVSILAMNEDEAEALTGESDPLLASDKALDWVDLVLCTAGPIGLYMAGFTEDEAKRKTQHPLLPGAIAEFNQYEFSRAMRHKDCQNPLRVYSHIAPYMGGPEKIMNTNGAGDGALAALLHDITANSYHRSNVPNSSKHKFTWLTYSSLAQVCKYANRVSYQVLNQHSPRLTRGLPEREDSLEESYWDR
[9]
  stoichiometry N: 2
[10]
  stoichiometry N: 4

B2: Gsk(L308S) (enzyme, E. coli, UniProt P0AEW6 1-434, looked up)
chain: MKFPGKRKSKHYFPVNARDPLLQQFQPENETSAAWVVGIDQTLVDIEAKVDDEFIERYGLSAGHSLVIEDDVAEALYQELKQKNLITHQFAGGTIGNTMHNYSVLADDRSVLLGVMCSNIEIGSYAYRYLCNTSSRTDLNYLQGVDGPIGRCFTLIGESGERTFAISPGHMNQLRAESIPEDVIAGASALVLTSYLVRCKPGEPMPEATMKAIEYAKKYNVPVVLTLGTKFVIAENPQWWQQFLKDHVSILAMNEDEAEALTGESDPLLASDKALDWVDLVLCTAGPIGLYMAGFTEDEAKRKTQHPSLPGAIAEFNQYEFSRAMRHKDCQNPLRVYSHIAPYMGGPEKIMNTNGAGDGALAALLHDITANSYHRSNVPNSSKHKFTWLTYSSLAQVCKYANRVSYQVLNQHSPRLTRGLPEREDSLEESYWDR
[11]
  stoichiometry N: 2

B3: Gsk, inosine-guanosine kinase (E. coli), crystallisation construct with N-terminal Gly-Ser-His scar (enzyme)
chain: GSHMKFPGKRKSKHYFPVNARDPLLQQFQPENETSAAWVVGIDQTLVDIEAKVDDEFIERYGLSAGHSLVIEDDVAEALYQELKQKNLITHQFAGGTIGNTMHNYSVLADDRSVLLGVMCSNIEIGSYAYRYLCNTSSRTDLNYLQGVDGPIGRCFTLIGESGERTFAISPGHMNQLRAESIPEDVIAGASALVLTSYLVRCKPGEPMPEATMKAIEYAKKYNVPVVLTLGTKFVIAENPQWWQQFLKDHVSILAMNEDEAEALTGESDPLLASDKALDWVDLVLCTAGPIGLYMAGFTEDEAKRKTQHPLLPGAIAEFNQYEFSRAMRHKDCQNPLRVYSHIAPYMGGPEKIMNTNGAGDGALAALLHDITANSYHRSNVPNSSKHKFTWLTYSSLAQVCKYANRVSYQVLNQHSPRLTRGLPEREDSLEESYWDR
[12]
  binding result: binds
